Key:
DOR [1] = molecular target: T1, DOR (Homo sapiens, UniProt P41143); experiment: Radioligand binding at DOR
hDAT = hDAT (Homo sapiens, UniProt Q01959); experiment: Radioligand binding at DAT; conditions: 10 μM; [3H]WIN35428; negative = enhanced radioligand binding
rat kidney TSPO = rat kidney TSPO (Rattus norvegicus, UniProt P16257); experiment: Radioligand binding at TSPO; conditions: for Ki: TSPO, rat TSPO, [3H]PK11195
mA3AR = molecular target: T2, mA3AR (Mus musculus, UniProt Q61618); experiment: Mouse A3AR binding
T2 sequence (Q61618 1-319): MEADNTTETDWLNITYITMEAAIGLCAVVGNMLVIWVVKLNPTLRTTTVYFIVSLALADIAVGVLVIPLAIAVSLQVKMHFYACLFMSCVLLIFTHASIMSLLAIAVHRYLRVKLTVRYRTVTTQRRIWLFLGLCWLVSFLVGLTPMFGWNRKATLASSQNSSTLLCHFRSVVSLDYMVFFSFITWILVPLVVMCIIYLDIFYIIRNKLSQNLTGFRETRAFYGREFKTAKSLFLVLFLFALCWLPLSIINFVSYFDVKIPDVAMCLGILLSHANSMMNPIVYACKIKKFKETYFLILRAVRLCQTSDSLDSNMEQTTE

hA2AAR = hA2AAR (Homo sapiens, UniProt P29274); experiment: hA2AAR binding; conditions: for inhibition at 10 µM: read-out: binding inhibition at hA2AAR (% at 10 μM)
hA3AR = molecular target: T3, hA3AR (Homo sapiens, UniProt P0DMS8); experiment: A3AR binding
T3 sequence (P0DMS8 1-318): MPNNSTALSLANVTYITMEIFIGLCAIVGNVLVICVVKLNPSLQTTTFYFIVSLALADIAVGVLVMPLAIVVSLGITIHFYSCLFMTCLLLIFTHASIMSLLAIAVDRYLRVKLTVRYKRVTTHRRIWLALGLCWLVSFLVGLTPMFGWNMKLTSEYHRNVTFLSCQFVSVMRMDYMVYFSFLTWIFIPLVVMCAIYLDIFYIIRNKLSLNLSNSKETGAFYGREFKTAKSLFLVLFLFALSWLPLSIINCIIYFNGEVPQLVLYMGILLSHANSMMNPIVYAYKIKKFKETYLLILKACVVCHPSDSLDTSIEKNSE

hA1AR = molecular target: T4, hA1AR (Homo sapiens, UniProt P30542); experiment: hA1AR binding; conditions: read-out: binding inhibition at hA1AR (% at 10 μM)
T4 sequence (P30542 1-326): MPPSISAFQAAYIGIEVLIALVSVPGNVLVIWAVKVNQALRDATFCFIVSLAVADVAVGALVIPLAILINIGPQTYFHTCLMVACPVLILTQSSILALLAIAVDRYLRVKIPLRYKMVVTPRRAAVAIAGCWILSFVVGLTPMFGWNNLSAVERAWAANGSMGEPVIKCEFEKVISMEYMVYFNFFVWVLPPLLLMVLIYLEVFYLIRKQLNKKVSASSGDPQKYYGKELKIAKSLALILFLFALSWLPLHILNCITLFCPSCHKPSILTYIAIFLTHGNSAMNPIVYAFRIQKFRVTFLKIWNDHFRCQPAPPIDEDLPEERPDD

5HT2C serotonin receptor = molecular target: T5, 5HT2C serotonin receptor (Homo sapiens, UniProt P28335); experiment: PDSP off-target binding, 5HT2C
T5 sequence (P28335 33-458): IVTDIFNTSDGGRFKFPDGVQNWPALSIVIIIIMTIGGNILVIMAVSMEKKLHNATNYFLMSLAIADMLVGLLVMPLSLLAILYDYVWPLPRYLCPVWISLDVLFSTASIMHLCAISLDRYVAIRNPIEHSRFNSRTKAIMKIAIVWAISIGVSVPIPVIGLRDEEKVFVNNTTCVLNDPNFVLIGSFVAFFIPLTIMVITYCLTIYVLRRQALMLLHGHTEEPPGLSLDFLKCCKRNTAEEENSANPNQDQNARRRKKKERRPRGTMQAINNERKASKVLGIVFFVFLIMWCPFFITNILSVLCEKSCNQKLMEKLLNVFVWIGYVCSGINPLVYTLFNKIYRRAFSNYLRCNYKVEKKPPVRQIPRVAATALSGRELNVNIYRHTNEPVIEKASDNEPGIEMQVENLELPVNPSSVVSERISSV

KOR [2] = molecular target: T6, KOR (Homo sapiens, UniProt P41145); experiment: biochemical; assay type: binding; conditions: for Ki: KOR
MOR [3] = molecular target: T7, MOR (Homo sapiens, UniProt P35372); experiment: biochemical; assay type: binding; conditions: Table 2; 10 μM
rat σ2 receptor = molecular target: T8, rat σ2 receptor (Rattus norvegicus, UniProt Q5U3Y7); experiment: PDSP binding, σ2 receptor
T8 sequence (Q5U3Y7 1-176): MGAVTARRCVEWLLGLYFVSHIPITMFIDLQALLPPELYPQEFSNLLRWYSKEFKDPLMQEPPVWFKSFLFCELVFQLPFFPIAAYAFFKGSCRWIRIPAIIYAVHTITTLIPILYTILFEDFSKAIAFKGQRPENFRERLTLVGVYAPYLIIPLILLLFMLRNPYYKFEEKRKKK

mA1AR = molecular target: T9, mA1AR (Mus musculus, UniProt Q60612); experiment: mA1AR binding; conditions: read-out: mA1AR binding, % inhibition at 10 μM
T9 sequence (Q60612 1-326): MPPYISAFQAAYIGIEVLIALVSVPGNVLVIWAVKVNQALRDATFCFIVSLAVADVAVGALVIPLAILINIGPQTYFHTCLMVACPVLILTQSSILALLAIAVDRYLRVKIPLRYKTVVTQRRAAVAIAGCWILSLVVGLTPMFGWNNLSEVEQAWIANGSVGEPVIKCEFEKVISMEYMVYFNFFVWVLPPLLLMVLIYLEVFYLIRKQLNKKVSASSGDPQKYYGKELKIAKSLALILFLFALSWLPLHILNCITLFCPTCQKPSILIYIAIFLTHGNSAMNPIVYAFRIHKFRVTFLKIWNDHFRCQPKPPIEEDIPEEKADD

mA2AAR = mA2AAR (Mus musculus, UniProt Q60613); experiment: mA2AAR binding; conditions: read-out: mA2AAR binding, % inhibition at 10 μM
MOR [4] = molecular target: T7, MOR; experiment: β-arrestin-recruitment TANGO assay at MOR; assay type: cell-based; conditions: 10 μM
DOR [5] = molecular target: T1, DOR; experiment: β-arrestin-recruitment TANGO assay at DOR; assay type: cell-based; conditions: 10 μM
KOR [6] = molecular target: T6, KOR; experiment: β-arrestin-recruitment TANGO assay at KOR; assay type: cell-based; conditions: 10 μM; vs naloxone 121 = 100% inhibition; agonist 109 (3 nM)
hNOP = hNOP (Homo sapiens, UniProt P41146); experiment: Radioligand binding at NOP
[7] = [3H]U69593, mean ± SEM, N = 2–4

T6 sequence (P41145 whole entry): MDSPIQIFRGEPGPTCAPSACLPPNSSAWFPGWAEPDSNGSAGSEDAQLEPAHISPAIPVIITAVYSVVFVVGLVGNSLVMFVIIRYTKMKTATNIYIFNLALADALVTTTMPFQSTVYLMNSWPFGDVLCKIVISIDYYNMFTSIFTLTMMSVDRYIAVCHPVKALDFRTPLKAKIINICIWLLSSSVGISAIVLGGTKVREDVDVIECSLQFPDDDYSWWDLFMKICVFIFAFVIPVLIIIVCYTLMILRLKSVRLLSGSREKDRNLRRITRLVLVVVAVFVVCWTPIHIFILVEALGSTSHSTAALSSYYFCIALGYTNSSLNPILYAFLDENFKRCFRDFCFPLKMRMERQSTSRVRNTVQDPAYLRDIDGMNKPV
T7 sequence (P35372 whole entry): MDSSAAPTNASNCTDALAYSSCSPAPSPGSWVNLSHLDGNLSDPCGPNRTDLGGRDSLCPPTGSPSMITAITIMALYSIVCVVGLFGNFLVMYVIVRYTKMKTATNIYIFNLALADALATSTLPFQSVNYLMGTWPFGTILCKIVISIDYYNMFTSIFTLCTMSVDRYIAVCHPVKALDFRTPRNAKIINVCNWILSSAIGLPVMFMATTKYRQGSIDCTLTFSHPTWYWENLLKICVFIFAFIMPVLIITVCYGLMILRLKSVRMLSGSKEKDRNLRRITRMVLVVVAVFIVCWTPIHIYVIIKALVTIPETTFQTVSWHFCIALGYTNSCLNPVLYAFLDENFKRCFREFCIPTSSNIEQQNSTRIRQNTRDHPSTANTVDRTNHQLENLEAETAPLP
Chain of hA2AAR (P29274 whole entry): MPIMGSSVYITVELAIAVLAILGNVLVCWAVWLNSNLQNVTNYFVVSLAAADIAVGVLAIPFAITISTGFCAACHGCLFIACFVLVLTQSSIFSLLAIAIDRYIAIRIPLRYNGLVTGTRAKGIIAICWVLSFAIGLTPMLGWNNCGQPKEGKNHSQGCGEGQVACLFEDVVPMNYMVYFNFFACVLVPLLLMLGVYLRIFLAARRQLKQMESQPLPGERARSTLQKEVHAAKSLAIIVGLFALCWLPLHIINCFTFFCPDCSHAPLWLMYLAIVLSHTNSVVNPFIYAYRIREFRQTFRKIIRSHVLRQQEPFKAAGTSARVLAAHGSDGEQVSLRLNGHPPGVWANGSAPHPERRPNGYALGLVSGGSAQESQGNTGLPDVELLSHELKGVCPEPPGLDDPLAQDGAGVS
Chain of rat kidney TSPO (P16257 whole entry): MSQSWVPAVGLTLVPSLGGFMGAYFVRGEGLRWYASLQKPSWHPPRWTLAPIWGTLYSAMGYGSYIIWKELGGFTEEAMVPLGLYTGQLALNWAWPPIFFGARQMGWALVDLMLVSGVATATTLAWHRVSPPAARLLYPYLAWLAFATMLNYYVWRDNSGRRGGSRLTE
T1 sequence (P41143 whole entry): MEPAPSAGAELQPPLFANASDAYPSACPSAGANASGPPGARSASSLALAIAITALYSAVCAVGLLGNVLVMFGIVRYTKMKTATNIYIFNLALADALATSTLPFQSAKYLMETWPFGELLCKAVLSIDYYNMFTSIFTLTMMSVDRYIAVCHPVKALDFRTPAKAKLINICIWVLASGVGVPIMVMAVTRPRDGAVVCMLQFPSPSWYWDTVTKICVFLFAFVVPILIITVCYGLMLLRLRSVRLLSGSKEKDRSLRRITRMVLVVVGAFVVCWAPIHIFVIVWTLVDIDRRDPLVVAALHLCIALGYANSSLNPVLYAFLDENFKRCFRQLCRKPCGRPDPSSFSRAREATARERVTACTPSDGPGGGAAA
Chain of hDAT (Q01959 whole entry): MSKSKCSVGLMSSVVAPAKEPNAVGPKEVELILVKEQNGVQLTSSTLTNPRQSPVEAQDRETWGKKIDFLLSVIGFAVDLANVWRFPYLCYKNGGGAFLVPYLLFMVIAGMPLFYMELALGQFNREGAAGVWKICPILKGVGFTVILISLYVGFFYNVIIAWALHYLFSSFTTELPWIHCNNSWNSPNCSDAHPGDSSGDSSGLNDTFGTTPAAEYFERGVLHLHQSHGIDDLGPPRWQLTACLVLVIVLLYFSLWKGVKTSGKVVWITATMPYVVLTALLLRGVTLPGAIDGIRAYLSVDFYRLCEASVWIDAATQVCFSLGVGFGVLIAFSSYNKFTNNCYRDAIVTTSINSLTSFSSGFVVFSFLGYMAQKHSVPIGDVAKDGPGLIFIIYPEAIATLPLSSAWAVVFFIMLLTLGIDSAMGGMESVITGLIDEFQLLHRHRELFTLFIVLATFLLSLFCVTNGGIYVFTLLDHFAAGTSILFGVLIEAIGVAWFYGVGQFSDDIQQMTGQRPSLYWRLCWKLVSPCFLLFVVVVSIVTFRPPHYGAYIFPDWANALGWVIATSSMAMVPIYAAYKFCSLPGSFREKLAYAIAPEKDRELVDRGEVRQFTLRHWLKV
Chain of mA2AAR (Q60613 whole entry): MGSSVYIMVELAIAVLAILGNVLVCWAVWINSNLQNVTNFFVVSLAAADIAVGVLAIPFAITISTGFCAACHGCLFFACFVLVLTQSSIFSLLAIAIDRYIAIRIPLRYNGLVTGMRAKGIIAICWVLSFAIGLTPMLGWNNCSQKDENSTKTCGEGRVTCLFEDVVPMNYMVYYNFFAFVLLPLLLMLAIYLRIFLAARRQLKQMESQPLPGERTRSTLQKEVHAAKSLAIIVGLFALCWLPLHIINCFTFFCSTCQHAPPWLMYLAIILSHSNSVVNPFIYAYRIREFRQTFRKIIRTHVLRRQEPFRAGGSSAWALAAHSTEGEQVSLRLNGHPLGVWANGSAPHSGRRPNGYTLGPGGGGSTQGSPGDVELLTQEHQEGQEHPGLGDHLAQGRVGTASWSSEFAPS
Chain of hNOP (P41146 whole entry): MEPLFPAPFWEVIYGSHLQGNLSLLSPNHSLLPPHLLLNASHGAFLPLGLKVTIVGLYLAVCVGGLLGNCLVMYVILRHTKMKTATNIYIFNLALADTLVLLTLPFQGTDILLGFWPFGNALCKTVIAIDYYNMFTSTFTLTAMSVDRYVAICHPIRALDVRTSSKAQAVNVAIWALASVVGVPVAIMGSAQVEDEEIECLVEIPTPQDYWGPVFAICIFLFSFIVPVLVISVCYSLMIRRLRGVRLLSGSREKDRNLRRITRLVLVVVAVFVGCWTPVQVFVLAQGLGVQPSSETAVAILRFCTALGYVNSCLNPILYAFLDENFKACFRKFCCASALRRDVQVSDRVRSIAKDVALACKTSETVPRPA

| DAT, inhibition, % of control at 10 μM (hDAT) | Ki (mA3AR) [nM] | Ki (rat kidney TSPO) [nM] | Ki (hA3AR) [nM] | Ki (KOR [2]; [7]) [nM] | inhibition at 10 µM (mA1AR) [%] | inhibition at 10 µM (mA2AAR) [%] | SMILES | DOR, inhibition of radioligand binding at 10 μM (class) (DOR [1]; Table 1) | DOR, inhibition of radioligand binding at 10 μM (class) (DOR [1]; Table 2) | MOR, inhibition of radioligand binding at 10 μM (class) (MOR [3]) | other results |
| --- | --- | --- | --- | --- | --- | --- | --- | --- | --- | --- | --- |
| –484% | 110 |  |  |  |  |  | CNC(=O)[C@@]12C[C@@H]1[C@@H](n1cnc3c(NC)nc(C#Cc4ccccc4Cl)nc31)[C@H](O)[C@@H]2O [compound 13] | ^e (30–50% inhibition of radioligand binding at 10 μM) |  |  | TSPO, inhibition of radioligand binding at 10 μM (class) (rat kidney TSPO; Table 1, 10 μM): ^e (30–50% inhibition of radioligand binding at 10 μM) |
| 15% | 71 | 1300 ± 150 | 3.7 ± 1 |  |  |  | CNC(=O)[C@@]12C[C@@H]1[C@@H](n1cnc3c(NCCC(F)(F)F)nc(C#Cc4ccc(Cl)s4)nc31)[C@H](O)[C@@H]2O [compound 19] | ^e (30–50% inhibition of radioligand binding at 10 μM) |  |  | inhibition at 10 µM (hA2AAR): 21%; inhibition at 10 µM (hA1AR): 46% |
| –136% |  | > 10000 | 158 ± 8 |  |  |  | CNc1nc(C#Cc2ccc(Cl)s2)nc2c1ncn2[C@H]1[C@H](O)[C@H](O)[C@]2(C(=O)NCCN)C[C@H]12 [compound 21] | ^f (<30% inhibition of radioligand binding at 10 μM) |  |  | Ki (5HT2C serotonin receptor): 510 nM; Ki (KOR [2]): 2790 nM |
| <10% | 828 | 3810 ± 100 | 29.4 ± 13.8 | 806 ± 263 | 54 | 5 | CCOC(=O)[C@@]12C[C@@H]1[C@@H](n1cnc3c(NC)cc(C#Cc4ccc(Cl)s4)nc31)[C@H](O)[C@@H]2O [compound 26] |  | ^c (30–50% inhibition of radioligand binding at 10 μM) | ^c (30–50% inhibition of radioligand binding at 10 μM) | inhibition at 10 µM (hA2AAR): 16%; Ki (rat σ2 receptor): 1760 nM; inhibition at 10 µM (hA1AR): 39% |

Further lines, the compound ahead of its results:

| SMILES | DAT, inhibition, % of control at 10 μM (hDAT) | Ki (mA3AR) [nM] | Ki (rat kidney TSPO) [nM] | Ki (hA3AR) [nM] | Ki (KOR [2]; [7]) [nM] | inhibition at 10 µM (mA1AR) [%] | inhibition at 10 µM (mA2AAR) [%] | DOR, inhibition of radioligand binding at 10 μM (class) (DOR [1]; Table 1) | DOR, inhibition of radioligand binding at 10 μM (class) (DOR [1]; Table 2) | MOR, inhibition of radioligand binding at 10 μM (class) (MOR [3]) | other results |
| --- | --- | --- | --- | --- | --- | --- | --- | --- | --- | --- | --- |
| CNC(=O)[C@@]12C[C@@H]1[C@@H](n1cnc3c(NCCCO)nc(C#Cc4ccc(Cl)s4)nc31)[C@H](O)[C@@H]2O [compound 20] | –107 ± 4% | 105 | 6160 ± 50 | 2.04 ± 1.46 |  |  |  | ^e (30–50% inhibition of radioligand binding at 10 μM) |  |  |  |
| CCCOC(=O)[C@@]12C[C@@H]1[C@@H](n1cnc3c(NC)nc(C#Cc4ccc(Cl)s4)nc31)[C@H](O)[C@@H]2O [compound 30] | –426% |  | 1160 ± 560 |  | 437 ± 167 | 53 | 13 |  | ^d (<30% inhibition of radioligand binding at 10 μM) | ^d (<30% inhibition of radioligand binding at 10 μM) |  |
| CNc1nc(C#Cc2ccc(Cl)s2)nc2c1ncn2[C@H]1[C@H](O)[C@H](O)[C@]2(C(=O)OCc3ccccc3)C[C@H]12 [compound 35] | <20% | 891 | 4050 ± 740 | 7.81 ± 2.4 | 629 ± 183 |  |  |  | ^d (<30% inhibition of radioligand binding at 10 μM) | ^c (30–50% inhibition of radioligand binding at 10 μM) | MOR Antag (%) (MOR [4]; vs naloxone 121 = 100% inhibition, agonist 99 (300 nM)): 82.1%; MOR Ag (%) (MOR [4]; vs standard agonist = 100%): 3.1%; DOR Antag (%) (DOR [5]; vs naloxone 121 = 100% inhibition): 14.1%; DOR Ag (%) (DOR [5]; vs standard agonist = 100%): –1.9%; KOR Antag (%) (KOR [6]): 112.9% |
| CNc1nc(C#Cc2ccc(Cl)s2)nc2c1ncn2[C@@H]1O[C@H](C(=O)OC)[C@@H](O)[C@H]1O [compound 46] | –220% |  |  |  |  | 62 | 12 |  |  |  | KOR, inhibition of radioligand binding at 10 μM (class) (KOR [2]; Table 3, 10 μM): ^d (30–50% inhibition of radioligand binding at 10 μM) |
| O[C@@H]1[C@H](O)[C@@H]2C[C@@H]2[C@H]1n1cnc2c(NCc3cccc(Cl)c3)nc(C#Cc3ccccc3)nc21 [compound 47] | 37% | 299 | 1640 ± 160 |  |  |  |  |  |  |  | Ki (hA2AAR): 670 nM; Ki (DOR [1]): 8000 ± 1000 nM; Ki (hNOP): > 10000 nM; Ki (rat σ2 receptor): 2730 nM |

— publication PMC6210068 (ACS Omega, 2018)
